In publication PMC8760230, “Translational Development of a Zr-89-Labeled Inhibitor of Prostate-specific Membrane Antigen for PET Imaging in Prostate Cancer” (Molecular Imaging and Biology, 2021):
Where two headings read alike, the source gives them in different places.

Tests used:
PSMA = biological target: T1, PSMA (Homo sapiens, UniProt Q04609); experiment: Equilibrium dissociation constant Kd / Bmax, saturation binding on PSMA-positive LNCaP cells; details: for Kd: 3 h incubation, 0.25-75 nM, nonspecific binding with 2-PMPA
T1 construct: host or cells: LNCaP cells
T1 sequence (Q04609 whole entry): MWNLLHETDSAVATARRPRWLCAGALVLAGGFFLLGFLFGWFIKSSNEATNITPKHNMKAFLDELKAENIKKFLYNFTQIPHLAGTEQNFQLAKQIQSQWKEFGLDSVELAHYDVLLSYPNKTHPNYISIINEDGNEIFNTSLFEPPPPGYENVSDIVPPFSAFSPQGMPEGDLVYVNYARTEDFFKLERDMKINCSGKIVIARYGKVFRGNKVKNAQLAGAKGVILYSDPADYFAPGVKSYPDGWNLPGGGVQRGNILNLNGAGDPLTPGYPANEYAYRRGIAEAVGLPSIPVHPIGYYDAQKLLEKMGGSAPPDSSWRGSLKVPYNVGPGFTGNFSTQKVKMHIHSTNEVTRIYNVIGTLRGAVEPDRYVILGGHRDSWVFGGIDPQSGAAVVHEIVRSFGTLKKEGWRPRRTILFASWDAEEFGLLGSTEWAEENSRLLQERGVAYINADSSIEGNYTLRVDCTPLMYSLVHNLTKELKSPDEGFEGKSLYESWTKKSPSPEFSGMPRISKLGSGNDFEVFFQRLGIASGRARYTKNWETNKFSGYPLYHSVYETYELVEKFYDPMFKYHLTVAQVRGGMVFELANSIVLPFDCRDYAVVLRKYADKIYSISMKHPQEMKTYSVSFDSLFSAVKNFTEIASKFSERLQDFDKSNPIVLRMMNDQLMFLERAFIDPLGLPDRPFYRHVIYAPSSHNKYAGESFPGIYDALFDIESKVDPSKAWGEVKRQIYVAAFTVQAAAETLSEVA
Procedure: The equilibrium dissociation constant describing the interaction of the radiolabeled ligands with the PSMA binding sites was determined in PSMA-positive LNCaP cell lines (Cell Line Service, Eppelheim, Germany). LNCaP cells were seeded at a density of 10^6 cells/well on a 6-well plate (Corning, ME, USA) and incubated under 5% CO2 at 37 °C for 48 h with medium (minimum essential medium Eagle supplemented with 2 mM L-glutamine, 0.1 mM non-essential amino acids (NEAA), 1.0 mM sodium pyruvate, 10% fetal bovine serum, 100 U/ml penicillin, and 100 µg/ml streptomycin) (Lonza, Verviers, Belgium) in a humidified incubator (Thermo Heracell 150 CO2-Incubator, MA, USA). To determine the nonspecific binding, the medium was removed from selected wells, and 1 ml of a solution of 0.1 mM of 2-(phosphonomethyl)-pentanedioic acid (2-PMPA) in fresh medium was added. […] The plates were then incubated under 5% CO2, at 37 °C for 1 h. After that, the medium was removed and the cells incubated under the same incubation conditions for 3 h with different concentrations (0.25 nM, 2.5 nM, 5 nM, 10 nM, 25 nM, 50 nM, and 75 nM) of the radiotracer under investigation in 1 ml fresh medium.
After 3 h, the cells were washed three times with 1 ml PBS, and the cells were finally lysed by adding 1 ml of 1 M NaOH and incubating them for 10 min at room temperature. All samples were measured with a gamma counter (Nuklear Medizintechnik Dresden Isomed 100, Dresden, Germany) and were decay-corrected. The equilibrium dissociation constant (Kd) and the maximum density of receptors (Bmax) were calculated by non-linear regression using GraphPad Prism 8.0.2 (GraphPad Software, San Diego, USA).

LNCaP cells [1] = experiment: Cellular uptake (specific cell binding) in LNCaP cells; format: cell-based; details: n=3
Procedure: (§1) The cell binding determined in these experiments is the sum of specific and nonspecific cell binding. To determine the values for nonspecific cell binding and internalization, all experiments were additionally performed in the presence of 2-PMPA.
(§2) The plates were incubated for 1 h; after which, 0.75 pmol of the radiotracer to be examined was added to 1 ml of fresh medium. The cells were incubated for 30 min, 1, 2, 3, and 5 h. At each time point, the supernatant was removed and the cells washed with 1 ml of PBS. To dissociate the receptor-bound radioligand, the cells were washed twice with 1 ml of a 0.1 M glycine buffer solution at pH 2.8 for 5 min. The 0.1 M glycine–HCl buffer dissociated all the surface-bound complexes. The cells were then washed with 1 ml of PBS, and the internalized fraction was determined by solubilizing the cells with 1 ml of 1 M NaOH and incubating them for 10 min at room temperature. The radioactivity collected from the culture medium, 0.1 M glycine (surface-bound), and 1 M NaOH (internalized fraction) was measured in a gamma counter and decay-corrected. Cell binding was calculated from the surface-bound (0.1 M glycine) and the internalized fraction (1 M NaOH). The internalized fraction was expressed as a percentage of cell binding (internalization to cell-bound radioactivity ratio). All cell uptake experiments were run in triplicate.

LNCaP cells [2] = experiment: Internalization in LNCaP cells; format: cell-based; details: n=3
Procedure: as §1, §2

prostate cancer relapse = experiment: First-in-human PET/CT scan in a patient with biochemical recurrence of prostate cancer; details: 2 h p.i., 343 MBq
Procedure: The patient had given their written informed consent for PET imaging and the scientific evaluation of their data. All procedures were performed in accordance with the Institutional Review Board and the regulations of the regional authorities in Cologne. The kidney dose was estimated on the basis of two PET scans. The following assumptions were made for the estimation: Between time 0 (injection) and the first measuring point, the time-activity-curve follows a constant progression. All measuring points were integrated numerically using trapezoidal approximation. From the last measuring point to infinity, a mono-exponential function was fitted and integrated. As the effective half-life could not be accurately determined from two measurement points, the physical half-life of Zr-89 was used instead.

SMILES: COc1nc([18F])ccc1C(=O)NCCCCC(NC(=O)NC(CCC(=O)O)C(=O)O)C(=O)O (stereo not shown) [[^18F]F-JK-PSMA-7]
- Kd (PSMA): 5.07 ± 0.45 nM
- Bmax (maximum achievable concentration on 10^6 tumor cells) (PSMA; Scatchard plots): 2702 ± 61 fmol/10^6 cells
- Specific binding in LNCaP cells as percentage of total activity (LNCaP cells [1]; 0.5 h): 23.8±0.6 %
- Specific binding in LNCaP cells as percentage of total activity (LNCaP cells [1]; 1 h): 32.6±0.4 %
- Specific binding in LNCaP cells as percentage of total activity (LNCaP cells [1]; 2 h): 38.8±1.3 %
- Specific binding in LNCaP cells as percentage of total activity (LNCaP cells [1]; 3 h): 45.2±1.9 %
- Specific binding in LNCaP cells as percentage of total activity (LNCaP cells [1]; 5 h): 45.8±0.4 %
- Specific internalized activity as percentage of specific cell-bound activity (LNCaP cells [2]; 0.5 h): 19.6±1.3 %
- Specific internalized activity as percentage of specific cell-bound activity (LNCaP cells [2]; 1 h): 33.9±1.6 %
- Specific internalized activity as percentage of specific cell-bound activity (LNCaP cells [2]; 2 h): 44.3±2.5%
- Specific internalized activity as percentage of specific cell-bound activity (LNCaP cells [2]; 3 h): 46.0±2.2%
- Specific internalized activity as percentage of specific cell-bound activity (LNCaP cells [2]; 5 h): 48.6±0.9 %
- SUVmax left prostate lobe (prostate cancer relapse): 4.63
- SUVmax right prostate lobe (prostate cancer relapse): 5.37
- Tumor/blood ratio (LNCaP tumor xenografts; 2 h p.i., LNCaP xenograft mice): 142 ± 24
- Tumor/kidneys ratio (LNCaP tumor xenografts; 2 h p.i., LNCaP xenograft mice): 0.74 ± 0.08
- Tumor/liver ratio (LNCaP tumor xenografts; 2 h p.i., LNCaP xenograft mice): 4.7 ± 1.2
- Tumor/muscle ratio (LNCaP tumor xenografts; 2 h p.i., LNCaP xenograft mice): 282 ± 71
- Biodistribution Blood (LNCaP tumor xenografts; 2 h p.i., i.v. 30 pmol, n=5): 0.15 ± 0.04 %ID/g
- Biodistribution Bone (LNCaP tumor xenografts; 2 h p.i., i.v. 30 pmol, n=5): 0.18 ± 0.03 %ID/g
- Biodistribution Heart (LNCaP tumor xenografts; 2 h p.i., i.v. 30 pmol, n=5): 0.12 ± 0.02 %ID/g
- Biodistribution Intestine (LNCaP tumor xenografts; 2 h p.i., i.v. 30 pmol, n=5): 0.89 ± 0.18 %ID/g
- Biodistribution Kidneys (LNCaP tumor xenografts; 2 h p.i., i.v. 30 pmol, n=5): 27.2 ± 2.6 %ID/g
- Biodistribution LNCAP-tumor (LNCaP tumor xenografts; 2 h p.i., i.v. 30 pmol, n=5): 20.2 ± 2.4 %ID/g
- Biodistribution Lung (LNCaP tumor xenografts; 2 h p.i., i.v. 30 pmol, n=5): 0.18 ± 0.01 %ID/g
- Biodistribution Muscle (LNCaP tumor xenografts; 2 h p.i., i.v. 30 pmol, n=5): 0.07 ± 0.02 %ID/g
- Biodistribution Prostate (LNCaP tumor xenografts; 2 h p.i., i.v. 30 pmol, n=5): 0.22 ± 0.03 %ID/g
- Biodistribution Spleen (LNCaP tumor xenografts; 2 h p.i., i.v. 30 pmol, n=5): 2.15 ± 0.45 %ID/g
- Biodistribution Thyroid (LNCaP tumor xenografts; 2 h p.i., i.v. 30 pmol, n=5): 0.19 ± 0.02 %ID/g
- Tumor/liver ratio (LNCaP tumor xenografts; 4 h p.i., LNCaP xenograft mice): 5.7 ± 0.7
- Biodistribution Blood (LNCaP tumor xenografts; 4 h p.i., i.v. 30 pmol, n=5): 0.12 ± 0.03 %ID/g
- Biodistribution Bone (LNCaP tumor xenografts; 4 h p.i., i.v. 30 pmol, n=5): 0.20 ± 0.03 %ID/g
- Biodistribution Heart (LNCaP tumor xenografts; 4 h p.i., i.v. 30 pmol, n=5): 0.10 ± 0.02 %ID/g
- Biodistribution Intestine (LNCaP tumor xenografts; 4 h p.i., i.v. 30 pmol, n=5): 1.53 ± 0.31 %ID/g
- Biodistribution Kidneys (LNCaP tumor xenografts; 4 h p.i., i.v. 30 pmol, n=5): 26.0 ± 3.5 %ID/g
- Biodistribution LNCAP-tumor (LNCaP tumor xenografts; 4 h p.i., i.v. 30 pmol, n=5): 21.3 ± 1.5 %ID/g
- Biodistribution Liver (LNCaP tumor xenografts; 4 h p.i., i.v. 30 pmol, n=5): 3.75 ± 0.50 %ID/g
- Biodistribution Lung (LNCaP tumor xenografts; 4 h p.i., i.v. 30 pmol, n=5): 0.18 ± 0.04 %ID/g
- Biodistribution Muscle (LNCaP tumor xenografts; 4 h p.i., i.v. 30 pmol, n=5): 0.19 ± 0.03 %ID/g
- Biodistribution Prostate (LNCaP tumor xenografts; 4 h p.i., i.v. 30 pmol, n=5): 0.60 ± 0.16 %ID/g
- Biodistribution Spleen (LNCaP tumor xenografts; 4 h p.i., i.v. 30 pmol, n=5): 1.57 ± 0.22 %ID/g
- Biodistribution Thyroid (LNCaP tumor xenografts; 4 h p.i., i.v. 30 pmol, n=5): 0.20 ± 0.02 %ID/g

SMILES: CC(=O)N1CCCCCNC(=O)CCC(=O)N2CCCCCNC(=O)CCC(=O)N(CCCCCNC(=O)CCC(=O)NCC3CCC(C(=O)NC(Cc4ccc5ccccc5c4)C(=O)NCCCCC(NC(=O)NC(CCC(=O)O)C(=O)O)C(=O)O)CC3)[O][Zr+]([O]1)[O]2 (stereo not shown) [[^89Zr]Zr-PSMA-DFO, [^89Zr]Zr-N-sucDf-AMCHA-2Nal-EuK]
- Kd (PSMA): 4.97 ± 0.57 nM
